Experimental data: patent US20210170033A1, “NOVEL CONJUGATES OF A PHARMACEUTICAL AGENT AND A MOIETY CAPABLE OF BINDING TO A GLUCOSE SENSING PROTEIN” (SANOFI, priority 2017, published 2021)
Where two headings read alike, the source gives them in different places.

Columns and labels:
[1] = system: A2780 cells; test: Deoxy-glucose uptake assay in A2780 cells (14C 2-deoxy-D-glucose transport); type: cell-based; conditions: Homo sapiens; for IC50: 20 min, inhibition of 14C 2-deoxy-D-glucose transport into A2780 cells, 20 min compound incubation, read-out: IC50
Procedure, shortened: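 Radiolabelled 2-deoxy-D-glucose transport over 20 min was scintillation-counted in A2780 cells, grown 48 h, after 20 min compound exposure in KRB. Untreated cells gave the 100% reference, with Cytochalasin B defining background. IC50 values were regressed from triplicate means across 7 or 14 concentrations.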

[2] = system: A2780 Human Carcinoma Cells; test: Glucose displacement assay (ATP measurement, CellTiter-Glo); type: cell-based; conditions: ATP measurement in A2780 cells, 0.5 μM rotenone
Experimental: 2. Glucose Displacement Assay (ATP Measurement)
30,000 A2780 Human Carcinoma Cells are seeded per well in a Greiner 96-well plate. Cells are expanded and cultured in RPMI 1640 medium+GlutaMAX® with 10% FCS and 11 mM glucose, at 37° C. with 5% CO2. After 44 h, culture media is changed and washed once with PBS to starvation media consisting of RPMI 1640 medium with 1% FCS without glucose for 2 hours. Cells are then washed with KRB buffer, followed by incubation for 20 min at 37° C. of the treatment mix consisting of 60 μL KRB buffer/well and 10 μL of compound or DMSO 10×. 10 μl of rotenone is added to the mix to a final concentration of 0.5 μM. Cell plates are left for 2 min at room temperature. 20 μL of different glucose concentrations are added to the mix—typically 0.1 to 10 mM range—.
Cells are incubated for another 15 min at 37° C., before measuring ATP with the CellTiter-Glo® Assay, under manufacturer's guidance, but without the equilibration step at room temperature for 30 min. In brief, 100 μl of Cell-Titer-Glo® Reagent is added to the wells containing already 100 μl of the previous reaction mix. Plates are mixed for 2 min at 800 rpm, followed by incubation at room temperature for 10 min to stabilize the luminescent signal. Luminescence is then recorded with the Tekan Ultra Evolution reader.

[3] = 1 mM glucose, read-out: IC50 [μM] at 1 mM glucose
[4] = 10 mM glucose, read-out: IC50 [μM] at 10 mM glucose

| IC50 [1] [µM] | IC50 [2, 3] [µM] | IC50 [2, 4] [µM] | Structure (SMILES) | inhibition at 100 µM ([1]; inhibition of 14C 2-deoxy-D-glucose transport into A2780 cells at 100 μM, read-out: % inh. at 100 μM) [%] |
| --- | --- | --- | --- | --- |
| 28.7 | 12.7 | 33.9 | COc1cc(C(=O)OC[C@H]2O[C@H](OC)[C@H](O)[C@@H](O)[C@@H]2O)cc(Cl)c1OCc1cccc(NC(=O)OC(C)(C)C)c1 [Example 20] |  |
| 2.2 | 16.7 | 104 | CO[C@H]1O[C@H](CO)[C@@H](O)[C@H](O)[C@H]1OC(=O)c1cc(Cl)c(OCc2nc3ccccc3n2Cc2ccccc2Cl)c(Cl)c1 [Example 116] |  |
| 4.5 | 0.393 | 2.4 | C#CCCCn1c(COc2c(Cl)cc(C(=O)N[C@H]3[C@@H](OC)O[C@H](CO)[C@@H](O)[C@@H]3O)c(C)c2Cl)nc2ccccc21 [Example 201] |  |
| 8.4 | 1.7 | > 10 | C#CCCC(=O)Nc1cccc(COc2c(Cl)cc(C(=O)O[C@H]3[C@@H](OC)O[C@H](CO)[C@@H](O)[C@@H]3O)c(C)c2Cl)c1 [Example 206] |  |
| 12.7 | 21.4 | > 100 | C#CCCCn1cnc(COc2c(Cl)cc(C(=O)O[C@H]3[C@@H](OC)O[C@H](CO)[C@@H](O)[C@@H]3O)cc2OC)c1 [Example 208] |  |
|  | 3.2 | 18.8 | COc1cc(C(=O)O[C@H]2[C@@H](OC)O[C@H](CO)[C@@H](O)[C@@H]2O)cc(Cl)c1OCc1cccc(NC(=O)CCc2cc(C)nn2C)c1 [Example 313] |  |
| 27.9 |  |  | COc1cc(OCc2cccc(NC(=O)CCCCCCCCC(=O)NCCCCCC(=O)OC(C)(C)C)c2)c(Cl)cc1C(=O)N[C@H]1[C@@H](OC)O[C@H](CO)[C@@H](O)[C@@H]1O [Example 467] |  |
| 27.8 |  |  | COC(=O)[C@H](CCCCNC(=O)CCCCCNC(=O)CCCCCCC(=O)NCc1cccc(COc2cc(OC)c(C(=O)N[C@H]3[C@@H](OC)O[C@H](CO)[C@@H](O)[C@@H]3O)cc2Cl)c1)NC(=O)OC(C)(C)C [Example 468] |  |
| 61.4 |  |  | COC(=O)CCCCCCCn1c(COc2cc(OC)c(C(=O)N[C@H]3[C@@H](OC)O[C@H](CO)[C@@H](O)[C@@H]3O)cc2Cl)nc2ccccc21 [Example 470] |  |
| < 0.1 |  |  | COc1cc(OCc2coc(-c3ccc(C(F)(F)F)cc3)n2)c(Cl)cc1C(=O)O[C@H]1[C@@H](OC)O[C@H](CO)[C@@H](O)[C@@H]1O [Example 473] |  |
| < 0.1 |  |  | COc1cc(OCc2coc(-c3ccc(Cl)cc3)n2)c(Cl)cc1C(=O)O[C@H]1[C@@H](OC)O[C@H](CO)[C@@H](O)[C@@H]1O [Example 474] |  |
| < 0.1 |  |  | COc1cc(OCc2cnc(-c3ccc(Cl)cc3)o2)c(Cl)cc1C(=O)O[C@H]1[C@@H](OC)O[C@H](CO)[C@@H](O)[C@@H]1O [Example 475] |  |
| < 0.1 |  |  | COc1cc(OCc2ccc(-c3csnn3)cc2)c(Cl)cc1C(=O)O[C@H]1[C@@H](OC)O[C@H](CO)[C@@H](O)[C@@H]1O [Example 476] |  |
| 3.7 |  |  | COc1cc(OCc2nnc(-c3ccc(Cl)cc3)s2)c(Cl)cc1C(=O)O[C@H]1[C@@H](OC)O[C@H](CO)[C@@H](O)[C@@H]1O [Example 477] |  |
| 0.24 |  |  | COc1cc(OCc2sc(C)nc2C(F)(F)F)c(Cl)cc1C(=O)O[C@H]1[C@@H](OC)O[C@H](CO)[C@@H](O)[C@@H]1O [Example 478] |  |
| < 0.1 |  |  | COc1cc(OCc2ccc(-c3nccs3)cc2)c(Cl)cc1C(=O)O[C@H]1[C@@H](OC)O[C@H](CO)[C@@H](O)[C@@H]1O [Example 479] |  |
| 4.6 |  |  | COc1cccc(COc2cc(OC)c(C(=O)O[C@H]3[C@@H](OC)O[C@H](CO)[C@@H](O)[C@@H]3O)cc2Cl)n1 [Example 480] |  |
| 0.6 |  |  | COc1cc(OCc2nc3ccccc3n2Cc2ccccc2)c(Cl)cc1C(=O)O[C@H]1[C@@H](OC)O[C@H](CO)[C@@H](O)[C@@H]1O [Example 481] |  |
| 36 |  |  | COc1cc(OCc2cnc(OC)c(NCC(=O)O)c2)c(Cl)cc1C(=O)N[C@H]1[C@@H](OC)O[C@H](CO)[C@@H](O)[C@@H]1O [Example 483] |  |
|  |  |  | O=C(NC[C@@H]1O[C@H](CO)[C@@H](O)[C@H](O)[C@H]1O)c1ccc(COc2ccccc2)o1 [Example 490] | 20 |
